Tested on: Purified human neutrophils
Assay: Lucigenin dependent chemiluminescence assay (neutrophil respiratory burst / priming for F-met-leu-phe response)
Type: cell-based
Settings: fMLP alone
Experimental: Purified human neutrophils were pretreated with peptide for 20 minutes before the addition of f-met-leu-phe. The lucigenin dependent chemiluminescence response, which reflects superoxide production, was then measured. The results obtained are set out in Table 2 and are expressed as mV of lucigenin dependent chemiluminescence and represent the maximal cell activity attained.
This experiment was repeated with peptides 304, 308 and 309.
The experiment was also conducted using peptides 393, 394, 395 and 396. […]
Results are expressed as mV of lucigenin dependent chemiluminescence and respresent peak of response i.e. the maximal cell activity attained.

SMILES: CSCC[C@H](NC=O)C(=O)N[C@@H](CC(C)C)C(=O)N[C@@H](Cc1ccccc1)C(=O)O [fMLP, N-formyl-L-methionyl-L-leucyl-L-phenylalanine]
- Chemiluminescence (Exp. 1): 1.53 mV
- Chemiluminescence (Exp. 2): 3.53 mV
- Chemiluminescence (Exp. 3): 1.96 mV

Source: patent EP0519976B1, “NEUTROPHIL STIMULATING PEPTIDES” (PEPTIDE TECHNOLOGY LTD, priority 1990, dated 1991)
